Measurements taken from PMC10119279 (Scientific Reports, 2023).
“And” between values parts separate entries of the source, which are not always exact repeats. Identical values can stand only once. Like-named read-outs stand apart in the source and are kept apart here.

Tests used:
[1] = cited from earlier work
[2] = molecular target: T1, CN1 enzyme (Homo sapiens, UniProt Q96KN2); test: In vitro degradation of carnosine, anserine and balenine added to human heparin plasma; format: in vitro ADME; details: for half-life at 20 µM: human, heparin plasma
T1 construct: Fasted venous heparin plasma was collected from 6 subjects (5 males and 1 female) with a wide range in CN1 enzyme activity; from tissue; host or cells: human venous heparin plasma from 6 volunteers
T1 sequence (Q96KN2 26-507): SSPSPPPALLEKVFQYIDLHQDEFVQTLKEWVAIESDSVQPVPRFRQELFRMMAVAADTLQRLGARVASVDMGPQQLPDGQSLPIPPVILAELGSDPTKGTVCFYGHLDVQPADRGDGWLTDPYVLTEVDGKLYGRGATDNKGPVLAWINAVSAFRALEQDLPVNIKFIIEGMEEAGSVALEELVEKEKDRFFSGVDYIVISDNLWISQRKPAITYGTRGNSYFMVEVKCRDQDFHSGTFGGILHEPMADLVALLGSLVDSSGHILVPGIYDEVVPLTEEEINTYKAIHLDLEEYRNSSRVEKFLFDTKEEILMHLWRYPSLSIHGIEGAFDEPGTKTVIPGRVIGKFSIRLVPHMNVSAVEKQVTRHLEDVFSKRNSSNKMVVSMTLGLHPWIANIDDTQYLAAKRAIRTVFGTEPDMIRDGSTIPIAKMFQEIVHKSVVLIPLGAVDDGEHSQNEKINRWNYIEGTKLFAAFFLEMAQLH
Protocol: Fasted venous heparin plasma was collected from 6 subjects (5 males and 1 female) with a wide range in CN1 enzyme activity (0.32–2.92 µmol/mL/h with a mean value of 1.62 µmol/mL/h). Subjects were asked to refrain from alcohol, meat and fish the day before the sampling. […] On different time points (Table 1), plasma was deproteinized with 1:11 sulfosalicylic acid (SSA, 35% solution) to inhibit further hydrolysis. Samples were centrifuged for 5 min at 16,000 g and supernatant was stored at − 20 °C until further UHPLC-MS/MS analysis.
(§1) Extraction of plasma and urine for UHPLC-MS/MS analysis went as follows: 150 µL of deproteinized plasma/urine (not deproteinized) was added to 215 µL of acetonitrile containing 1% formic acid, 10 µL of internal standard (IS) (carnosine-D4) and 25 µL ultrapure water or standard (calibration curve and quality control samples (QC)). Then samples were vortexed and centrifuged (15 min, 4 °C, 15,000 g). Supernatant was used for further analyses.
(§2) In the in vitro study, supernatant was diluted 40 times before injection. In the PK study, plasma samples from the 10 mg/kg condition and baseline urine samples were diluted 100 times. All other urine samples were diluted 1000 times. Dilutions were conducted with acetonitrile containing 1% formic acid.
(§3) Analyses were performed on a UHPLC-MS/MS platform consisting of an Acquity H-Class Quaternary Solvent Manager and Flow-Through-Needle Sample Manager with temperature controlled tray (8 °C) and column oven (60 °C). Chromatographic separation was achieved on an Acquity UPLC BEH amide column (2.1 mm × 100 mm, 1.7 µm) with an Acquity amide Vanguard pre-column. The system operated at a flow rate of 0.3 mL/min with solvent A (ultrapure water), solvent B (acetonitrile) and solvent C (200 mM ammonium formate with 0.04% ammonia) with the gradient shown in Table 2. The UPLC column effluent was interfaced to a Xevo TQ-XS® MS/MS system (plasma samples) and Xevo TQ-S® (urine samples), equipped with an electrospray ionization (ESI) probe operating in positive ion mode. Further MS settings included desolvation gas flow rate (15 L/h), desolvation temperature (600 °C), cone gas flow rate (800 L/h), source temperature (150 °C) and capillary voltage (0.75 kV). Transition details are depicted in Table 3. […] The detector operated in multiple reacting monitoring mode, scanning the two most intense transitions of the HCDs. Masslynx software 4.2 was used for instrument control and data extraction. Hardware and software were purchased from Waters (Milford, MA, USA).
CN1 activity was quantified by fluorometric determination of histidine following carnosine addition (based on Teufel et al., 2003). The reaction was initiated by adding carnosine to the serum (final concentration of 3.33 mM carnosine) and stopped after 10 min incubation at 37 °C by adding trichloroacetic acid (final concentration of 150 mM TCA). For controls, trichloroacetic acid was added before carnosine. After centrifugation (15 min, 16000 g), 10 µl supernatant was added to 190 µl of an OPA-NaOH mixture (4000 µl incomplete ophtaldehyde, with 0.2% 2-mercaptoethanol, and 15 ml of 4 M sodium hydroxide solution) and fluorescence was determined after 40 min (excitation: 360 nm and emission: 465 nm). All chemicals were purchased from Sigma-Aldrich (Milan, Italy).
HCD concentration in the in vitro experiment was calculated relative to the starting concentration. Elimination constant (ke) and elimination half-life were calculated based on a monophasic decay profile. Incremental area under the plasma concentration time curve (iAUC) was calculated using the trapezoidal method in the PK study. A normality check was performed using Shapiro-Wilk’s test. In case of normally distributed data, a mixed-effects model and Pearson correlation was used. Skewed data were analysed with Friedman tests and Spearman rank correlations. Values are presented as mean/median ± standard deviation/inter quartile range and 95% confidence intervals (95% CI). […]

[3] = tested on: serum carnosinase (CN1) enzyme; details: cited from earlier work; for Substrate quality for the CN1 enzyme: ref 15-17; for Hydrolysis rate as % of carnosine's: several in vitro experiments
[4] = tested on: human peptide transporter 2 (PEPT2); set-up: method as in PMID 20067523; details: ref 23; cited from earlier work
[5] = set-up: method as in PMID 30449006; details: ref 10; cited from earlier work
[6] = clinical; details: both, human, plasma and urine, oral
Protocol: Plasma concentrations were described using a 1-compartmental model, with sequential zero- and first-order absorption and linear elimination. Cumulative urine concentrations were fitted simultaneously with plasma concentrations. Inter-occasion variability was also implemented and assumed to follow a lognormal distribution. Residual variability was described using a combined error model, consisting of an additive and a proportional component. The following covariates were tested: sex, age, weight, CN1 activity and dose. Model evaluation was done based on standard goodness-of-fit metrics (objective function value, standard errors) and plots.

[7] = compared to carnosine and anserine; cited from earlier work
[8] = In vivo pharmacokinetic experiment: plasma and urine balenine after acute oral ingestion; set-up: species or system human; details: for Urinary balenine excretion: urine up to 24 h; for Cmax: read-out: Cmax (peak plasma concentration)
Protocol: Six subjects (3 males and 3 females) participated in this PK study in which three increasing doses were tested. For the third dose, […] was replaced, due to pregnancy, by […] with similar CN1 activity. […] This means that half of the dose was administered as 5 mg/kg (weight-relative part) and the other half was an absolute dose based on the mean weight of the subjects of the third test day (341 mg; fixed part).
The day before a test day, subjects were asked to refrain from meat and fish. Upon arrival, a catheter was inserted in an antecubital vein and a fasted ethylenediaminetetraacetic acid (EDTA, 4 mL) and serum sample (3.5 mL, to determine CN1 activity) were collected. […] The following 2 h, every 30 min an EDTA blood sample was taken. Then after 3, 4, 5, 8 and 24 h, another sample was withdrawn. Urine was collected after 150 min, 5, 8 and 24 h. The subjects arrived in the lab and remained fasted until 2 h after ingesting the supplement. Subjects remained in the lab until the post 8 h blood sample, and returned the following morning for the post 24 h sample. Throughout the test day, food intake was standardized (lacto-ovo-vegetarian diet) ensuring minimal HCD intake for 24 h following supplement. Figure 5 gives a schematic overview of a test day.
Plasma samples were collected in pre-cooled (4 °C) EDTA tubes. Upon withdrawal, plasma was immediately deproteinized with 1:11 SSA, centrifuged (5 min, 16 000 g) and stored at − 20 °C.
as §1, §2, §3
CN1 activity was quantified by fluorometric determination of histidine following carnosine addition (based on Teufel et al., 2003).

[9] = tested on: Sprague Dawley rats
Protocol: Following treatment, a 2 week observation period with twice daily examination for morbidity and mortality was performed.

[10] = 20 µM added to heparin plasma, 37 °C
[11] = 20 µM added to human heparin plasma, 37 °C, 6 subjects
[12] = both sexes, 20 µM added to human heparin plasma, 37 °C, 6 subjects, read-out: Half-life in plasma
[13] = in vitro human heparin plasma, factor ×, not significant

Cn1cncc1C[C@H](NC(=O)CCN)C(=O)O [anserine, β-alanyl-N(π)-methyl-L-histidine, reference compound]
Cmax ([1]; 4 mg/kg oral, human): 0.54 µM
Cmax ([1]; 10 mg/kg oral, human): 1.1 µM
Plasma iAUC ([1]; 10 mg/kg oral, human): 66.7 µM·min
Dose-dependent peak plasma concentrations after ingestion ([1]; human): 0.5 to 3.1 µM
Average excreted percentage of the dose in urine (intact) ([1]; n = 7): 6.3%
Time after which undetectable in plasma [2, 10]: 15 min
Half-life in plasma [2, 11]: 2 min
half-life at 20 µM [2, 12]: 2.14 ± 0.58 min
Elimination constant ke: factor difference between carnosine and anserine [2, 13]: 1.8
Substrate quality for the CN1 enzyme [3]: intermediate
Hydrolysis rate as % of carnosine's [3]: 30–50%
Affinity for PEPT2 [4]: high-affinity ligand

NCCC(=O)NC(CO)Cc1cnc[nH]1 (stereo not drawn) [carnosinol, reference compound]
Resistance to CN1 ([3]; ref 29): resistant to CN1

Cn1cnc(CC(NC(=O)CCN)C(=O)O)c1 [balenine, β-alanyl-N(τ)-methyl-L-histidine]
Ability to quench reactive aldehydes such as HNE and acrolein [5]: lacks the ability to quench reactive aldehydes
Vd [6]: 126 L
clearance [6]: 327 mL/min
half-life [6]: 12 min
Antioxidant and iron-chelating capacity [7]: higher antioxidant and iron-chelating capacity than carnosine and anserine
Time remaining elevated above LOQ in plasma ([2]; 20 µM added to heparin plasma, 37 °C, LOQ 0.05 µM): up to 5 h
half-life at 20 µM [2, 12]: 34.9 ± 14.6 min
half-life at 20 µM ([2]; in vitro, read-out: Half-life in plasma with the highest CN1 activity): 15 min
Half-life in plasma with the lowest CN1 activity relative to highest ([2]; in vitro): threefold higher half-life
Elimination rate constant relative to carnosine ([2]; in vitro human heparin plasma): 3.86%
Elimination constant ke: factor lower for balenine compared to carnosine ([2]; in vitro human heparin plasma, factor ×): 25.9
Elimination constant ke: factor difference between balenine and anserine [2, 13]: 14.0
Urinary excretion as % of the ingested dose ([8]; 1 mg/kg oral): 27.3%
Urinary balenine excretion ([8]; 1 mg/kg oral): 19.3 ± 13.1 mg
Time plasma balenine remained significantly increased ([8]; 4 mg/kg oral): up to 3 h
Urinary excretion as % of the ingested dose ([8]; 4 mg/kg oral): 29.7%
Urinary balenine excretion ([8]; 4 mg/kg oral): 82.0 ± 40.5 mg
Cmax of balenine relative to anserine at the same dose ([8]; 10 mg/kg oral): 25.9 fold
Plasma iAUC of balenine relative to anserine ([8]; 10 mg/kg oral): 136 fold
Time plasma balenine remained significantly increased ([8]; 10 mg/kg oral): up to 8 h
Urinary excretion as % of the ingested dose ([8]; 10 mg/kg oral): 25.2%
Cmax ([8]; 10 mg/kg oral (fragmented dose), human, n = 6): 28 µM
Plasma iAUC ([8]; 10 mg/kg oral, human): 8960 µM·min
Urinary balenine excretion ([8]; 10 mg/kg oral): 176 ± 95.9 mg
Average excreted percentage of the dose in urine (intact) ([8]; average over doses, n = 6): 27.4%
Cmax ([8]; both sexes, human, plasma, po, 1 mg/kg, 1 mg/kg oral, human, n = 6): 1.6 ± 0.5 µM
Cmax ([8]; both sexes, human, plasma, po, 4 mg/kg, 4 mg/kg oral, human, n = 6): 7.1 ± 1.2 µM
Cmax ([8]; both sexes, human, plasma, po, 10 mg/kg, 10 mg/kg oral (fragmented dose), human, n = 6): 28.2 ± 7.4 µM
Cmax ratio 4 mg/kg vs 1 mg/kg ([8]; oral, human): 4.4 times
Cmax ratio 10 mg/kg vs 1 mg/kg ([8]; oral, human): 17.6 fold and 18 fold
Cmax ratio 10 mg/kg vs 4 mg/kg ([8]; oral, human): 4 times
Urinary excretion after 1 mg/kg: times lower than after 4 mg/kg ([8]; oral, human): 4 times
iAUC ratio 4 mg/kg vs 1 mg/kg ([8]; oral, human): 3.8 times
iAUC ratio 10 mg/kg vs 1 mg/kg ([8]; oral, human): 14.2 fold
iAUC ratio 10 mg/kg vs 4 mg/kg ([8]; oral, human): 3.7 times
Pathological changes, morbidity and mortality ([9]; female Sprague Dawley rats, acute increasing doses up to 2000 mg/kg, 2 week observation): No pathological changes were observed in any animal
Dose concluded safe ([9]; female, Sprague Dawley, rat, in vivo, 2 weeks): 2000 mg/kg
Duration of zero-order input (dT1) (1 and 4 mg/kg doses, shorter for 10 mg/kg): 1.13 h
Absorption constant (ka) (first-order absorption, fixed to last estimated value): 3.48 h⁻¹
Fraction excreted in urine (pu) (population estimate): 0.56
Substrate quality for the CN1 enzyme [3]: poor
Rate of hydrolysis relative to carnosine ([3]; ref 15): 8%
Rate of hydrolysis relative to carnosine ([3]; ref 16): 3.81%
Hydrolysis rate as % of carnosine's [3]: 5–20%

NCCC(=O)N[C@@H](Cc1cnc[nH]1)C(=O)O [carnosine, β-alanyl-L-histidine, reference compound]
Plasma concentration change after ingestion ([1]; 60 mg/kg bodyweight, only in people with low CN1 activity): small increase
Plasma level after ingestion ([1]; highest dose of 20 mg/kg oral, human): barely measurable
Time after which undetectable in plasma [2, 10]: 5 min
Half-life in plasma [2, 11]: 1 min
half-life at 20 µM [2, 12]: 1.2 ± 0.36 min
Substrate quality for the CN1 enzyme [3]: good
